Conditions: Liquid; for mass density: Vibrating tube method; for speed of sound: Pulse-echo method

CCCCCn1cc[n+](C)c1.O=S(=O)([N-]S(=O)(=O)C(F)(F)F)C(F)(F)F
Conditions | mass density [kg/m3] | speed of sound [m/s]
313.15 K, 25860 kPa | 1409.15 | –
313.15 K, 31480 kPa | 1412.95 | –
313.15 K, 37770 kPa | 1417.13 | –
313.15 K, 44170 kPa | 1421.26 | –
313.15 K, 50750 kPa | 1425.48 | –
313.15 K, 59590 kPa | 1431.06 | –
318.15 K, 100 kPa | 1385.75 | –
318.15 K, 500 kPa | – | 1187.3
318.15 K, 1830 kPa | 1387.09 | –
318.15 K, 3500 kPa | – | 1198.6
318.15 K, 7000 kPa | – | 1211.5
318.15 K, 10000 kPa | – | 1222.4
318.15 K, 10020 kPa | 1393.29 | –
318.15 K, 13500 kPa | – | 1234.8
318.15 K, 14980 kPa | 1396.9 | –
318.15 K, 16990 kPa | – | 1246.9
318.15 K, 19750 kPa | 1400.31 | –
318.15 K, 20000 kPa | – | 1257
318.15 K, 25860 kPa | 1404.59 | –
318.15 K, 30000 kPa | – | 1290
318.15 K, 31480 kPa | 1408.43 | –
318.15 K, 37770 kPa | 1412.65 | –
318.15 K, 40000 kPa | – | 1321
318.15 K, 44170 kPa | 1416.86 | –
318.15 K, 50000 kPa | – | 1350.2
318.15 K, 50750 kPa | 1421.15 | –
318.15 K, 59590 kPa | 1426.81 | –
318.15 K, 60000 kPa | – | 1378.2
318.15 K, 70000 kPa | – | 1404.9
318.15 K, 80000 kPa | – | 1430.7
318.15 K, 90000 kPa | – | 1455.5
318.15 K, 100000 kPa | – | 1479.5
318.15 K, 112500 kPa | – | 1508
318.15 K, 125000 kPa | – | 1535.9
318.15 K, 137510 kPa | – | 1562.6
318.15 K, 150000 kPa | – | 1587.4
323.15 K, 100 kPa | 1381.45 | –
323.15 K, 1830 kPa | 1382.69 | –
323.15 K, 10020 kPa | 1388.89 | –
323.15 K, 14980 kPa | 1392.55 | –
323.15 K, 19750 kPa | 1395.96 | –
323.15 K, 25860 kPa | 1400.22 | –
323.15 K, 31480 kPa | 1404.06 | –
323.15 K, 37770 kPa | 1408.3 | –
323.15 K, 44170 kPa | 1412.52 | –
323.15 K, 50750 kPa | 1416.77 | –
323.15 K, 59590 kPa | 1422.52 | –
325.15 K, 100 kPa | 1379.56 | –
325.15 K, 1830 kPa | 1380.89 | –
325.15 K, 10020 kPa | 1387.23 | –
325.15 K, 14980 kPa | 1390.89 | –
325.15 K, 19750 kPa | 1394.39 | –
325.15 K, 25860 kPa | 1398.72 | –
325.15 K, 31480 kPa | 1402.63 | –
325.15 K, 37770 kPa | 1406.92 | –
325.15 K, 44170 kPa | 1411.19 | –
325.15 K, 50750 kPa | 1415.51 | –
325.15 K, 59590 kPa | 1421.18 | –
327.15 K, 100 kPa | 1377.56 | –
327.15 K, 1830 kPa | 1378.86 | –
327.15 K, 10020 kPa | 1385.24 | –
327.15 K, 14980 kPa | 1388.96 | –
327.15 K, 19750 kPa | 1392.45 | –
327.15 K, 25860 kPa | 1396.84 | –
327.15 K, 31480 kPa | 1400.77 | –
327.15 K, 37770 kPa | 1405.12 | –
327.15 K, 44170 kPa | 1409.39 | –
327.15 K, 50750 kPa | 1413.81 | –
327.15 K, 59590 kPa | 1419.56 | –
328.15 K, 500 kPa | – | 1165.8
328.15 K, 3500 kPa | – | 1177.4
328.15 K, 7000 kPa | – | 1190.6
328.15 K, 10000 kPa | – | 1201.8
328.15 K, 13500 kPa | – | 1214.2
328.15 K, 16990 kPa | – | 1226.6
328.15 K, 20000 kPa | – | 1236.9
328.15 K, 30000 kPa | – | 1270.5
328.15 K, 40000 kPa | – | 1301.9
328.15 K, 50000 kPa | – | 1331.7
328.15 K, 60000 kPa | – | 1360.1
328.15 K, 70000 kPa | – | 1387.2
328.15 K, 80000 kPa | – | 1413.4
328.15 K, 90000 kPa | – | 1438.4
328.15 K, 100000 kPa | – | 1462.6
328.15 K, 112500 kPa | – | 1491.6
328.15 K, 125000 kPa | – | 1519.6
328.15 K, 137510 kPa | – | 1546.6
328.15 K, 150000 kPa | – | 1571.5
329.15 K, 100 kPa | 1375.46 | –
329.15 K, 1830 kPa | 1376.78 | –
329.15 K, 10020 kPa | 1383.2 | –
329.15 K, 14980 kPa | 1386.93 | –
329.15 K, 19750 kPa | 1390.47 | –
329.15 K, 25860 kPa | 1394.89 | –
329.15 K, 31480 kPa | 1398.85 | –
329.15 K, 37770 kPa | 1403.2 | –
329.15 K, 44170 kPa | 1407.56 | –
329.15 K, 50750 kPa | 1411.94 | –
329.15 K, 59590 kPa | 1417.73 | –
331.15 K, 100 kPa | 1373.32 | –
331.15 K, 1830 kPa | 1374.64 | –
331.15 K, 10020 kPa | 1381.17 | –
331.15 K, 14980 kPa | 1384.96 | –
331.15 K, 19750 kPa | 1388.53 | –
331.15 K, 25860 kPa | 1392.98 | –
331.15 K, 31480 kPa | 1396.98 | –
331.15 K, 37770 kPa | 1401.34 | –
331.15 K, 44170 kPa | 1405.67 | –
331.15 K, 50750 kPa | 1410.08 | –
331.15 K, 59590 kPa | 1415.87 | –
333.15 K, 100 kPa | 1371 | –
333.15 K, 1830 kPa | 1372.46 | –
333.15 K, 10020 kPa | 1379.05 | –
333.15 K, 14980 kPa | 1382.89 | –
333.15 K, 19750 kPa | 1386.48 | –
333.15 K, 25860 kPa | 1390.95 | –
333.15 K, 31480 kPa | 1395.01 | –
333.15 K, 37770 kPa | 1399.42 | –
333.15 K, 44170 kPa | 1403.81 | –
333.15 K, 50750 kPa | 1408.2 | –
333.15 K, 59590 kPa | 1414.01 | –
338.15 K, 500 kPa | – | 1144.8
338.15 K, 3500 kPa | – | 1156.5
338.15 K, 7000 kPa | – | 1170
338.15 K, 10000 kPa | – | 1181.4
338.15 K, 13500 kPa | – | 1194.3
338.15 K, 16990 kPa | – | 1206.7
338.15 K, 20000 kPa | – | 1217.2
338.15 K, 30000 kPa | – | 1251.3
338.15 K, 40000 kPa | – | 1283.3
338.15 K, 50000 kPa | – | 1313.6
338.15 K, 60000 kPa | – | 1342.4
338.15 K, 70000 kPa | – | 1369.8
338.15 K, 80000 kPa | – | 1396.3
338.15 K, 90000 kPa | – | 1421.6
338.15 K, 100000 kPa | – | 1446.3
338.15 K, 112500 kPa | – | 1475.3
338.15 K, 125000 kPa | – | 1503.7
338.15 K, 137510 kPa | – | 1530.9
338.15 K, 150000 kPa | – | 1556.2

Reference: the NIST ThermoML archive (doi:10.1021/je060203o)
